Legend:
[1] = biological target: T1, Human Factor XIIa (hFXIIa) (Homo sapiens, UniProt P00748); assay: Determination of Human Factor XIIa (hFXIIa) inhibition, fluorogenic substrate IC50 assay; type: biochemical; settings: fluorogenic substrate H-DPro-Phe-Arg-AFC at Km, 25° C., read-out: Human FXIIa IC50
T1 construct: purchased Enzyme Research Laboratories
T1 sequence (P00748 373-615 limits assumed): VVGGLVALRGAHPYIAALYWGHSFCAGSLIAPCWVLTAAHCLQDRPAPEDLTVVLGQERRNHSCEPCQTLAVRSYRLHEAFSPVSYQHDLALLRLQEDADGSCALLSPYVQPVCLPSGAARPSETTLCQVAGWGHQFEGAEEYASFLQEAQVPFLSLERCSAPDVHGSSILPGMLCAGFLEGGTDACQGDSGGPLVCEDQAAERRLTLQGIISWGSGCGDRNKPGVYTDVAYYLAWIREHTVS
T1 sequence (P00748 20-372 partner limits assumed): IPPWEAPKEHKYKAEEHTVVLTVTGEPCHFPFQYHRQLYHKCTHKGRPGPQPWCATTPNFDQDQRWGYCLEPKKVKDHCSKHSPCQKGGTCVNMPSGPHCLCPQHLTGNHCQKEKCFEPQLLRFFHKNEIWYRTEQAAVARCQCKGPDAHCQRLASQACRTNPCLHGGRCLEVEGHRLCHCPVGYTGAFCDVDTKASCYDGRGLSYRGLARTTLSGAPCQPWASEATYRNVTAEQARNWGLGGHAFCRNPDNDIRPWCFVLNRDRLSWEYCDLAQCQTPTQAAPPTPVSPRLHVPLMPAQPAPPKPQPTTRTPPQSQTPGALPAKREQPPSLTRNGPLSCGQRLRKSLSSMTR
Procedure: Determination of Human Factor XIIa (hFXIIa) inhibition
The Km for the cleavage of the substrate by hFXIIa was determined by standard transformation of the Michaelis-Menten equation, with subsequent inhibition assays performed at substrate Km concentration.

FXa = FXa (Homo sapiens, UniProt P00742); assay: Related protease inhibition: FXa, fluorogenic substrate; type: biochemical; settings: fluorogenic substrate at Km, 25° C.; H1-H3 = % activity at 40 μM
Chain of FXa (P00742 235-488 limits assumed): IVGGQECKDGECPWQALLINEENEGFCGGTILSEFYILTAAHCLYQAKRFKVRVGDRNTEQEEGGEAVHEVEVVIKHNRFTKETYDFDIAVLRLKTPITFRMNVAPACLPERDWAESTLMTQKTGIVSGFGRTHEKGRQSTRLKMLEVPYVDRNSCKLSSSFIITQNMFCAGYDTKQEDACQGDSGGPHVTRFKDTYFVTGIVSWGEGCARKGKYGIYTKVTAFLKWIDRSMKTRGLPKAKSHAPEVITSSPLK
Chain of FXa (P00742 41-179 partner limits assumed): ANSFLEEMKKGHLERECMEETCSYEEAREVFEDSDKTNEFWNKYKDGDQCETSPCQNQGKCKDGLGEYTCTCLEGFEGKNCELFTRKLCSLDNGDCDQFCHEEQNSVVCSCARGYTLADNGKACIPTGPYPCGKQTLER
Procedure: Human serine protease enzyme Plasma Kallikrein, KLK1, FXa, Plasmin, Thrombin and Trypsin were assayed for enzymatic activity using an appropriate fluorogenic substrate at Km concentration, FXIa at fixed substrate concentration of 100 μM and various concentrations of the test compound.

Row | Compound | IC50 [1] | IC50 (FXa)
1 | CN1CCc2ccc(N3CCc4c(C(=O)N[C@@H]5CCOC5)nn(-c5cccc(Cl)c5)c4C3=O)cc2C1=O [Example 1338, (R)-1-(3-chlorophenyl)-6-(2-methyl-1-oxo-1,2,3,4-tetrahydroisoquinolin-7-yl)-7-oxo-N-(tetrahydrofuran-3-yl)-4,5,6,7-tetrahydro-1H-pyrazolo[3,4-c]pyridine-3-carboxamide] | 300 to 1000 nM | > 40 µM
2 | CN1CCc2ccc(N3CCc4c(C(=O)NC5(CO)CC5)nn(-c5cccc(Cl)c5)c4C3=O)cc2C1=O [Example 1360, 1-(3-chlorophenyl)-N-(1-(hydroxymethyl)cyclopropyl)-6-(2-methyl-1-oxo-1,2,3,4-tetrahydroisoquinolin-7-yl)-7-oxo-4,5,6,7-tetrahydro-1H-pyrazolo[3,4-c]pyridine-3-carboxamide] | 300 to 1000 nM | 10 to 40 µM
3 | CN1CCc2ccc(N3CCc4c(C(=O)NCC5CC5)nn(-c5cccc(C(N)=O)c5)c4C3=O)cc2C1=O [Example 2006, 1-(3-carbamoylphenyl)-N-(cyclopropylmethyl)-6-(2-methyl-1-oxo-1,2,3,4-tetrahydroisoquinolin-7-yl)-7-oxo-4,5,6,7-tetrahydro-1H-pyrazolo[3,4-c]pyridine-3-carboxamide] | 10000 to 40000 nM | > 40 µM
4 | CCNC(=O)c1nn(-c2cccc(Cl)c2C)c2c1CCN(c1ccc3c(c1)C(=O)N(C)CC3)C2=O [Example 2036, 1-(3-chloro-2-methylphenyl)-N-ethyl-6-(2-methyl-1-oxo-1,2,3,4-tetrahydroisoquinolin-7-yl)-7-oxo-4,5,6,7-tetrahydro-1H-pyrazolo[3,4-c]pyridine-3-carboxamide] | 1000 to 3000 nM | > 40 µM
5 | CN1CCc2ccc(N3CCc4c(C(=O)NC5(C)CCOCC5)nn(-c5cccc(Cl)c5)c4C3=O)cc2C1=O [Example 1266, 1-(3-chlorophenyl)-6-(2-methyl-1-oxo-1,2,3,4-tetrahydroisoquinolin-7-yl)-N-(4-methyltetrahydro-2H-pyran-4-yl)-7-oxo-4,5,6,7-tetrahydro-1H-pyrazolo[3,4-c]pyridine-3-carboxamide] | 300 to 1000 nM | > 40 µM
6 | CN1CCc2ccc(N3CCc4c(C(=O)NC5(C)CC5)nn(-c5cccc(Cl)c5)c4C3=O)cc2C1=O [Example 1359, 1-(3-chlorophenyl)-6-(2-methyl-1-oxo-1,2,3,4-tetrahydroisoquinolin-7-yl)-N-(1-methylcyclopropyl)-7-oxo-4,5,6,7-tetrahydro-1H-pyrazolo[3,4-c]pyridine-3-carboxamide] | 300 to 1000 nM | > 40 µM
7 | CCCN1CCc2ccc(N3CCc4c(C(=O)NCC5CC5)nn(-c5cccc(Cl)c5)c4C3=O)cc2C1=O [Example 1211, 1-(3-chlorophenyl)-N-(cyclopropylmethyl)-7-oxo-6-(1-oxo-2-propyl-1,2,3,4-tetrahydroisoquinolin-7-yl)-4,5,6,7-tetrahydro-1H-pyrazolo[3,4-c]pyridine-3-carboxamide] | 300 to 1000 nM | > 40 µM
8 | CN1CCc2ccc(N3CCc4c(C(=O)N[C@H]5CCOC5)nn(-c5cccc(Cl)c5)c4C3=O)cc2C1=O [Example 1336, (S)-1-(3-chlorophenyl)-6-(2-methyl-1-oxo-1,2,3,4-tetrahydroisoquinolin-7-yl)-7-oxo-N-(tetrahydrofuran-3-yl)-4,5,6,7-tetrahydro-1H-pyrazolo[3,4-c]pyridine-3-carboxamide] | 300 to 1000 nM | > 40 µM
9 | NC(=O)CN1CCc2ccc(N3CCc4c(C(=O)NCC5CC5)nn(-c5cccc(Cl)c5)c4C3=O)cc2C1=O [Example 1333, 6-(2-(2-amino-2-oxoethyl)-1-oxo-1,2,3,4-tetrahydroisoquinolin-7-yl)-1-(3-chlorophenyl)-N-(cyclopropylmethyl)-7-oxo-4,5,6,7-tetrahydro-1H-pyrazolo[3,4-c]pyridine-3-carboxamide] | 300 to 1000 nM | > 4 µM
10 | O=C(NCc1ccccc1)c1nn(-c2cccc(Cl)c2)c2c1CCN(c1cccc(CN3CCCCC3)c1)C2=O [Example 1001, N-Benzyl-1-(3-chlorophenyl)-7-oxo-6-(3-(piperidin-1-ylmethyl)phenyl)-4,5,6,7-tetrahydro-1H-pyrazolo[3,4-c]pyridine-3-carboxamide] | 100 to 300 nM | > 40 µM

Results, then the compound that gave them:

Row | IC50 [1] | IC50 (FXa) | Compound
11 | 100 to 300 nM | > 40 µM | O=C(NCc1ccn(C2CC2)n1)c1nn(-c2cccc(Cl)c2)c2c1CCN(c1ccc3c(c1)C(=O)N(CCO)CC3)C2=O [Example 1355, 1-(3-chlorophenyl)-N-((1-cyclopropyl-1H-pyrazol-3-yl)methyl)-6-(2-(2-hydroxyethyl)-1-oxo-1,2,3,4-tetrahydroisoquinolin-7-yl)-7-oxo-4,5,6,7-tetrahydro-1H-pyrazolo[3,4-c]pyridine-3-carboxamide]
12 | 100 to 300 nM | 10 to 40 µM | Cc1c[nH]nc1CNC(=O)c1nn(-c2cccc(Cl)c2)c2c1CCN(c1ccc3c(c1)C(=O)N(C)CC3)C2=O [Example 1248, 1-(3-chlorophenyl)-6-(2-methyl-1-oxo-1,2,3,4-tetrahydroisoquinolin-7-yl)-N-((4-methyl-1H-pyrazol-3-yl)methyl)-7-oxo-4,5,6,7-tetrahydro-1H-pyrazolo[3,4-c]pyridine-3-carboxamide]
13 | 10 to 100 nM | 1 to 3 µM | Cc1ccncc1CNC(=O)c1nn(-c2cccc(Cl)c2)c2c1CCN(c1ccc3c(c1)CN(CCO)CC31CC1)C2=O [Example 1144, 1-(3-Chlorophenyl)-6-(2′-(2-hydroxyethyl)-2′,3′-dihydro-1′H-spiro[cyclopropane-1,4′-isoquinolin]-7′-yl)-N-((4-methylpyridin-3-yl)methyl)-7-oxo-4,5,6,7-tetrahydro-1H-pyrazolo[3,4-c]pyridine-3-carboxamide]
14 | 100 to 300 nM | 0.3 to 1 µM | CCOC(=O)c1nn(-c2cccc(Cl)c2)c2c1CCN(c1ccc3c(c1)CN(C)CC3)C2=O [Example 1013, ethyl 1-(3-chlorophenyl)-6-(2-methyl-1,2,3,4-tetrahydroisoquinolin-7-yl)-7-oxo-4,5,6,7-tetrahydro-1H-pyrazolo[3,4-c]pyridine-3-carboxylate]
15 | 100 to 300 nM | > 40 µM | CN1CCc2ccc(N3CCc4c(C(=O)N[C@@H](CO)C5CC5)nn(-c5cccc(Cl)c5)c4C3=O)cc2C1=O [Example 1404, (R)-1-(3-chlorophenyl)-N-(1-cyclopropyl-2-hydroxyethyl)-6-(2-methyl-1-oxo-1,2,3,4-tetrahydroisoquinolin-7-yl)-7-oxo-4,5,6,7-tetrahydro-1H-pyrazolo[3,4-c]pyridine-3-carboxamide]
16 | 100 to 300 nM | 10 to 40 µM | Cc1cn(C)nc1CNC(=O)c1nn(-c2cccc(Cl)c2)c2c1CCN(c1ccc3c(c1)C(=O)N(C)CC3)C2=O [Example 1225, 1-(3-chlorophenyl)-N-((1,4-dimethyl-1H-pyrazol-3-yl)methyl)-6-(2-methyl-1-oxo-1,2,3,4-tetrahydroisoquinolin-7-yl)-7-oxo-4,5,6,7-tetrahydro-1H-pyrazolo[3,4-c]pyridine-3-carboxamide]
17 | 100 to 300 nM | > 40 µM | Cc1ncc(CNC(=O)c2nn(-c3cccc(Cl)c3)c3c2CCN(c2ccc4c(c2)C(=O)N(C)CC4)C3=O)s1 [Example 1193, 1-(3-chlorophenyl)-6-(2-methyl-1-oxo-1,2,3,4-tetrahydroisoquinolin-7-yl)-N-((2-methylthiazol-5-yl)methyl)-7-oxo-4,5,6,7-tetrahydro-1H-pyrazolo[3,4-c]pyridine-3-carboxamide]
18 | 10 to 100 nM | 10 to 40 µM | Cc1cccc(CNC(=O)c2nn(-c3cccc(Cl)c3)c3c2CCN(c2ccc4c(c2)CN(CCO)CC4)C3=O)n1 [Example 1139, 1-(3-chlorophenyl)-6-(2-(2-hydroxyethyl)-1,2,3,4-tetrahydroisoquinolin-7-yl)-N-((6-methylpyridin-2-yl)methyl)-7-oxo-4,5,6,7-tetrahydro-1H-pyrazolo[3,4-c]pyridine-3-carboxamide]
19 | 100 to 300 nM | > 40 µM | Cc1ncccc1CNC(=O)c1nn(-c2cccc(Cl)c2)c2c1CCN(c1ccc3c(c1)C(=O)N(C)CC3)C2=O [Example 1309, 1-(3-chlorophenyl)-6-(2-methyl-1-oxo-1,2,3,4-tetrahydroisoquinolin-7-yl)-N-((2-methylpyridin-3-yl)methyl)-7-oxo-4,5,6,7-tetrahydro-1H-pyrazolo[3,4-c]pyridine-3-carboxamide]
20 | 100 to 300 nM | > 40 µM | CC(=O)N1CCc2ccc(N3CCc4c(C(=O)NCc5cnccc5C)nn(-c5cccc(Cl)c5)c4C3=O)cc21 [Example 1188, 6-(1-acetylindolin-6-yl)-1-(3-chlorophenyl)-N-((4-methylpyridin-3-yl)methyl)-7-oxo-4,5,6,7-tetrahydro-1H-pyrazolo[3,4-c]pyridine-3-carboxamide]
